According to patent publication US4371537A, “Sulfur-substituted phenoxypyridines having antiviral activity” (The Dow Chemical Company, priority 1981, dated 1983):
Converted amounts (≈) assume the structure as drawn.

Columns and labels:
Rhinovirus Type 10 = test: Inhibition of cytopathic effect in WI-38 cell culture tubes, rhinovirus type 10; format: cell-based; conditions: Enterovirus; 12.5 μg/ml; WI-38 cells; read-out: Inhibition grade, Rhinovirus Type 10
Protocol: (§1) The test compound was dissolved in an appropriate solvent (generally dimethyl sulfoxide) and incubated at 56° C. for at least 15 minutes and this solution was then used to prepare various test solutions having the desired concentration of test compound in preheated WI maintenance medium (49% Eagles, 49% medium 199, 2% fetal calf serum and antibiotics).
(§2) Triplicate cell culture tubes (WI-38 human embryonic lung cell culture tubes) were fed with 1 ml of medium containing the compound at specified concentrations and inoculated with 3-300 TCID50 (3-300 times the tissue culture infective dose 50, i.e., the dose required to infect 50% of the cell cultures tested). Simultaneous viral titrations were performed. The tissue cultures were supplemented with fresh medium when necessary (around 3-4 days) until viral titrations were completed.
(§3) The cell culture tubes were examined dialy for cytopathic effect. […] Comparisons were made at that time with the percentage of cell sheet destruction in tubes containing virus compound mixtures. Observed differences of 75% or more were graded "+", 74-50% as "±", and less than 50% as "-" inhibition.

Rhinovirus Type 39 = test: Inhibition of cytopathic effect in WI-38 cell culture tubes, rhinovirus type 39; format: cell-based; conditions: Enterovirus; 12.5 μg/ml; WI-38 cells; read-out: Inhibition grade, Rhinovirus Type 39
Protocol: as §1, §2, §3

Rhinovirus Type 21 = test: Inhibition of cytopathic effect in WI-38 cell culture tubes, rhinovirus type 21; format: cell-based; conditions: Enterovirus; 12.5 μg/ml; WI-38 cells; read-out: Inhibition grade, Rhinovirus Type 21
Protocol: as §1, §2, §3

[1] = tested on: rhinovirus type 1A (RV-1A); test: Tissue culture testing, rhinovirus type 1A in HeLa cells; format: cell-based; conditions: Enterovirus, 48 and 72 hours, NA = not active at the standard test conditions, read-out: RV-1A: lowest concentration of the compound necessary to cause a 50 percent reduction in cytopathic effect
Protocol: (§4) Monolayered HeLa cells in 16 millimeter (mm) tissue culture dishes were treated with 1 ml of culture medium (Eagles medium supplemented with fetal calf serum) containing subject compound at an appropriate concentration or containing no compound at all. Culture media such as those described herein are more fully described in standard texts, as for example, Kuchler's Biochemical Methods in Cell Culture and Virology, Dowden, Hutchinson and Ross, Inc., Stroudsberg, PA (1977). Following treatment, cells were challenged with 0.05 ml of rhinovirus type 1A (RV-1A), rhinovirus type 2 (RV-2) or Coxsackie A21 virus (Cox A21) in culture medium. Some of the compounds were also tested against rhinovirus type 5 (RV-5), rhinovirus type 8 (RV-8) or rhinovirus type 64 (RV-64). Cell controls received no viruses.
(§5) ^2 Lowest concentration of the compound (μg/ml) necessary to cause

Rhinovirus Type 60 = test: Inhibition of cytopathic effect in WI-38 cell culture tubes, rhinovirus type 60; format: cell-based; conditions: Enterovirus; 12.5 μg/ml; WI-38 cells; read-out: Inhibition grade, Rhinovirus Type 60
Protocol: as §1, §2, §3

Rhinovirus Type 29 = test: Inhibition of cytopathic effect in WI-38 cell culture tubes, rhinovirus type 29; format: cell-based; conditions: Enterovirus; 12.5 μg/ml; WI-38 cells; read-out: Inhibition grade, Rhinovirus Type 29
Protocol: as §1, §2, §3

Rhinovirus Type 4 = test: Inhibition of cytopathic effect in WI-38 cell culture tubes, rhinovirus type 4; format: cell-based; conditions: Enterovirus; 12.5 μg/ml; WI-38 cells; read-out: Inhibition grade, Rhinovirus Type 4
Protocol: as §1, §2, §3

Rhinovirus Type 17 = test: Inhibition of cytopathic effect in WI-38 cell culture tubes, rhinovirus type 17; format: cell-based; conditions: Enterovirus; 12.5 μg/ml; WI-38 cells; read-out: Inhibition grade, Rhinovirus Type 17
Protocol: as §1, §2, §3

[2] = tested on: rhinovirus type 64 (RV-64); test: Tissue culture testing, rhinovirus type 64 in HeLa cells; format: cell-based; conditions: Enterovirus, 48 and 72 hours, NA = not active at the standard test conditions, read-out: RV-64: lowest concentration of the compound necessary to cause a 50 percent reduction in cytopathic effect
Protocol: as §4, §5

Rhinovirus Type 13 = test: Inhibition of cytopathic effect in WI-38 cell culture tubes, rhinovirus type 13; format: cell-based; conditions: Enterovirus; 12.5 μg/ml; WI-38 cells; read-out: Inhibition grade, Rhinovirus Type 13
Protocol: as §1, §2, §3

Rhinovirus Type 75 = test: Inhibition of cytopathic effect in WI-38 cell culture tubes, rhinovirus type 75; format: cell-based; conditions: Enterovirus; 12.5 μg/ml; WI-38 cells; read-out: Inhibition grade, Rhinovirus Type 75
Protocol: as §1, §2, §3

Rhinovirus Type 64 = test: Inhibition of cytopathic effect in WI-38 cell culture tubes, rhinovirus type 64; format: cell-based; conditions: Enterovirus; 12.5 μg/ml; WI-38 cells; read-out: Inhibition grade, Rhinovirus Type 64
Protocol: as §1, §2, §3

Rhinovirus Type 6 = test: Inhibition of cytopathic effect in WI-38 cell culture tubes, rhinovirus type 6; format: cell-based; conditions: Enterovirus; 12.5 μg/ml; WI-38 cells; read-out: Inhibition grade, Rhinovirus Type 6
Protocol: as §1, §2, §3

Rhinovirus Type 8 = test: Inhibition of cytopathic effect in WI-38 cell culture tubes, rhinovirus type 8; format: cell-based; conditions: Enterovirus; 12.5 μg/ml; WI-38 cells; read-out: Inhibition grade, Rhinovirus Type 8
Protocol: as §1, §2, §3

Cox A21 = test: Single Oral Dose test in mice challenged IP with Cox A21; format: in vivo, Swiss male mice; conditions: >3.84 significant (95% confidence level)
Protocol: In addition, some of the compounds were tested in animals utilizing the following procedure, hereinafter referred to as the "Single Oral Dose" test. Swiss male mice, 8-12 grams in weight were challenged intraperitoneally (IP) with 0.2 ml of a normally lethal dose, i.e., a virus dose sufficient to cause […].80-100% mortality in infected animals within 10 days of challenge of Cox A21, in phosphate buffered saline containing 1% heat inactivated fetal calf serum. Three hours later mice were treated orally (P.O.) with 0.2 ml of compound suspended in 0.5% hydroxypropyl methylcellulose (Methocel) or with 0.2 ml of 0.5% Methocel containing no compound. […] Mice were observed daily for 7-10 days post-challenge and deaths recorded. A modified Mantel-Haenzel combined chi-square procedure was used to determine significant difference between virus control and treated groups. Chi-square values greater than 3.84 are considered significant (95% confidence level) in this test.

Hanks Untyped = test: Inhibition of cytopathic effect in WI-38 cell culture tubes, Hanks Untyped; format: cell-based, rhinovirus; conditions: Enterovirus; 12.5 μg/ml; WI-38 cells; read-out: Inhibition grade, Hanks Untyped
Protocol: as §1, §2, §3

Rhinovirus Type 58 = test: Inhibition of cytopathic effect in WI-38 cell culture tubes, rhinovirus type 58; format: cell-based; conditions: Enterovirus; 12.5 μg/ml; WI-38 cells; read-out: Inhibition grade, Rhinovirus Type 58
Protocol: as §1, §2, §3

Rhinovirus Type 59 = test: Inhibition of cytopathic effect in WI-38 cell culture tubes, rhinovirus type 59; format: cell-based; conditions: Enterovirus; 12.5 μg/ml; WI-38 cells; read-out: Inhibition grade, Rhinovirus Type 59
Protocol: as §1, §2, §3

Rhinovirus Type 19 = test: Inhibition of cytopathic effect in WI-38 cell culture tubes, rhinovirus type 19; format: cell-based; conditions: Enterovirus; 12.5 μg/ml; WI-38 cells; read-out: Inhibition grade, Rhinovirus Type 19
Protocol: as §1, §2, §3

Rhinovirus Type 74 = test: Inhibition of cytopathic effect in WI-38 cell culture tubes, rhinovirus type 74; format: cell-based; conditions: Enterovirus; 12.5 μg/ml; WI-38 cells; read-out: Inhibition grade, Rhinovirus Type 74
Protocol: as §1, §2, §3

rhinovirus type 2 (RV-2) = test: Tissue culture testing, rhinovirus type 2 in HeLa cells; format: cell-based; conditions: Enterovirus, 48 and 72 hours, NA = not active at the standard test conditions, read-out: RV-2: lowest concentration of the compound necessary to cause a 50 percent reduction in cytopathic effect
Protocol: as §4, §5

Rhinovirus Type 81 = test: Inhibition of cytopathic effect in WI-38 cell culture tubes, rhinovirus type 81; format: cell-based; conditions: Enterovirus; 12.5 μg/ml; WI-38 cells; read-out: Inhibition grade, Rhinovirus Type 81
Protocol: as §1, §2, §3

[3] = Cytotoxicity in tissue culture testing (HeLa monolayers); format: cell-based; conditions: human; HeLa cells; observed at 48 and 72 hours post-treatment; read-out: Cytotoxicity: concentration of the compound found to be toxic to the cell
Protocol: as §4
^1 Cytotoxicity figures represent the concentration of the compound, […]

[4] = tested on: Coxsackie A21 virus (Cox A21); test: Tissue culture testing, Coxsackie A21 virus in HeLa cells; format: cell-based; conditions: 48 and 72 hours, NA = not active at the standard test conditions, read-out: Cox A21: lowest concentration of the compound necessary to cause a 50 percent reduction in cytopathic effect
Protocol: as §4, §5

Rhinovirus Type 56 = test: Inhibition of cytopathic effect in WI-38 cell culture tubes, rhinovirus type 56; format: cell-based; conditions: Enterovirus; 12.5 μg/ml; WI-38 cells; read-out: Inhibition grade, Rhinovirus Type 56
Protocol: as §1, §2, §3

Rhinovirus Type 68 = test: Inhibition of cytopathic effect in WI-38 cell culture tubes, rhinovirus type 68; format: cell-based; conditions: Enterovirus; 12.5 μg/ml; WI-38 cells; read-out: Inhibition grade, Rhinovirus Type 68
Protocol: as §1, §2, §3

rhinovirus type 8 (RV-8) = test: Tissue culture testing, rhinovirus type 8 in HeLa cells; format: cell-based; conditions: Enterovirus, 48 and 72 hours, NA = not active at the standard test conditions, read-out: RV-8: lowest concentration of the compound necessary to cause a 50 percent reduction in cytopathic effect
Protocol: as §4, §5

Coxsackie A21 virus = test: Continuous Oral Feeding test in mice challenged IP with Coxsackie A21 virus; format: in vivo; conditions: po, 0.06 % in diet, 240 h
Protocol: Some of the compounds were also tested in animals utilizing the following procedure, hereainafter referred to as the "Continuous Oral Feeding" test. Coxsackie A21 virus grown on HeLa cells was administered at a concentration that produces 80 to 100% deaths in mice weighing 8 to 12 grams within 10 days, when the mice are injected (IP) with 0.2 ml of virus preparation. Mice were placed on diets containing test compound dispersed in plain commercially available rodent mash chow at a concentration of 0.06% (weight percent) on day 0. On day 1 the mice were challenged with the virus preparation, 0.2 ml/mouse, (IP). Deaths in both control and experimental groups were recorded for the 10 days and the results analyzed by a chi-square (.chi.^2) test. Chi-square values greater than 3.84 indicate the compound is active (95% confidence level).

SMILES: CS(=O)(=O)c1ccc(Oc2ccc(Cl)cc2)nc1 [Example 32, 2-(4-chlorophenoxy)-5-(methylsulfonyl)pyridine]
- inhibition at 12.5 µg/mL (Rhinovirus Type 10): ≥ 75%
- inhibition at 12.5 µg/mL (Rhinovirus Type 39): < 50%
- inhibition at 12.5 µg/mL (Rhinovirus Type 21): 50 to 74%
- EC50 [1]: 1.25 µg/mL (≈ 4.41 µM)
- inhibition at 12.5 µg/mL (Rhinovirus Type 60): ≥ 75%
- inhibition at 12.5 µg/mL (Rhinovirus Type 29): ≥ 75%
- inhibition at 12.5 µg/mL (Rhinovirus Type 4): ≥ 75%
- inhibition at 12.5 µg/mL (Rhinovirus Type 17): ≥ 75%
- EC50 [2]: 1.25 µg/mL (≈ 4.41 µM)
- inhibition at 12.5 µg/mL (Rhinovirus Type 13): < 50%
- inhibition at 12.5 µg/mL (Rhinovirus Type 75): < 50%
- inhibition at 12.5 µg/mL (Rhinovirus Type 64): ≥ 75%
- inhibition at 12.5 µg/mL (Rhinovirus Type 6): 50 to 74%
- inhibition at 12.5 µg/mL (Rhinovirus Type 8): < 50%
- Single Oral Dose X^2 (chi-square, deaths vs virus control) (Cox A21; 200 mg/kg P.O. 3 h after IP challenge): 52.866
- inhibition at 12.5 µg/mL (Hanks Untyped): ≥ 75%
- inhibition at 12.5 µg/mL (Rhinovirus Type 58): ≥ 75%
- inhibition at 12.5 µg/mL (Rhinovirus Type 59): ≥ 75%
- inhibition at 12.5 µg/mL (Rhinovirus Type 19): ≥ 75%
- inhibition at 12.5 µg/mL (Rhinovirus Type 74): ≥ 75%
- EC50 (rhinovirus type 2 (RV-2)): 2.5 µg/mL (≈ 8.81 µM)
- inhibition at 12.5 µg/mL (Rhinovirus Type 81): 50 to 74%
- MCC [3]: 50 µg/mL
- EC50 [4]: 3.12 µg/mL (≈ 11 µM)
- inhibition at 12.5 µg/mL (Rhinovirus Type 56): ≥ 75%
- inhibition at 12.5 µg/mL (Rhinovirus Type 68): ≥ 75%

SMILES: CCS(=O)(=O)c1ccc(Oc2ccc(Oc3ccccc3)cc2)nc1 [Example 44, 5-(ethylsulfonyl)-2-(4-phenoxyphenoxy)pyridine]
- EC50 [1]: 6.25 µg/mL (≈ 17.6 µM)
- Single Oral Dose X^2 (chi-square, deaths vs virus control) (Cox A21; 600 mg/kg P.O. 3 h after IP challenge): 0.196
- EC50 (rhinovirus type 2 (RV-2)): 3.12 µg/mL (≈ 8.79 µM)
- EC50 (rhinovirus type 8 (RV-8)): 6.25 µg/mL (≈ 17.6 µM)
- MCC [3]: 6.25 µg/mL
- EC50 [4]: 3.12 µg/mL (≈ 8.79 µM)
- Continuous Oral Feeding X^2 (chi-square, deaths vs control) (Coxsackie A21 virus): 1.58
